Experimental data as given in patent US7465814B2, “Sulfonate compound and fluorescent probe using the same” (priority 2003, dated 2008).

Key:
[1] = Fluorescent response to ascorbic acid (Table 1); type: biochemical; settings: relative fluorescence intensity, blank = 10; probe 21.3 μM, ascorbic acid 50 μM, 37° C., 10 minutes
Description: (§1) Moreover, in other conditions than those of the above-described tests, reactivity of all of the compounds 1a to 1d with H2O2, other various kinds of nucleophilic agents, reducing agents and the like also was tested, respectively. More specifically, fluorescent responses of 1a to 1d with respect to a XO-HPX system, a XO-HPX-SOD system, H2O2, ascorbic acid, 1,4-hydroquinone, propylamine, diethylamine, glucose, esterase, a cytochrome P450 reductase+NADPH system, and a diaphorase+NADH system were measured, respectively. Operational processes thereof will be described below. Firstly, 1a to 1d and the above-described reagents were dissolved in HEPES of 10 mM having a pH of 7.4 so as to prepare solutions, respectively. Next, a 96 wellmicroplate was provided, where any of the solutions of 1a to 1d (25 μM, 170 μL) was poured into each of the wells, and furthermore, 30 μL of a blank solution or 30 μL of the solution of the reagent to be reacted therewith was added thereto. Final concentrations of the solutions in the wells were adjusted so that concentrations of the solutions of 1a to 1d respectively could be 21.3 μM, that of XO could be 13.1 mU/mL, those of HPX, H2O2, ascorbic acid, 1,4-hydroquinone, propylamine, diethylamine, glucose, NADPH and NADH respectively could be 50 μM, that of cytochrome P450 reductase could be 68 mU/mL, that of diaphorase could be 65 mU/mL, and that of esterase could be 0.5 U/mL, respectively. Then, after they reacted in the wells at 37° C. for 10 minutes, fluorescent responses were measured respectively. Fluorescence intensity measurement was conducted by using an ETC-272 Peltier thermostatted single cell holder (trade name) manufactured by JASCO Corporation or a SpectraMax GeminiEM fluorescence plate reader (trade name) manufactured by Molecular Devices Corporation provided with a FP-750 spectrofluorometer (trade name) manufactured by JASCO Corporation, and by setting excitation wavelengths and emission wavelengths so that those of 1a, 1b and 1c respectively could be 485 nm and 515 nm, and those of 1d respectively could be 511 nm and 540 nm.

[2] = Fluorescent response to propylamine (Table 1); type: biochemical; settings: relative fluorescence intensity, blank = 10; probe 21.3 μM, propylamine 50 μM, 37° C., 10 minutes
Description: as §1

[3] = Fluorescent response to diethylamine (Table 1); type: biochemical; settings: relative fluorescence intensity, blank = 10; probe 21.3 μM, diethylamine 50 μM, 37° C., 10 minutes
Description: as §1

esterase = assay: Fluorescent response to esterase (Table 1); type: biochemical; settings: relative fluorescence intensity, blank = 10; probe 21.3 μM, esterase 0.5 U/mL, 37° C., 10 minutes
Description: as §1

[4] = Tracking fluorescence with enzymatically produced superoxide (FIG. 1a-c); type: biochemical
Source text: (§2) This figure is a graph showing results that are obtained by tracking fluorescence by allowing the compound 1d to react with H2O2 or superoxide produced enzymatically, a horizontal axis thereof represents a reaction time (second), and a vertical axis thereof represents a fluorescence intensity (au). In the figure, (a) represents a result obtained by a reaction in the presence of HPX and XO, (b) represents a result obtained by a reaction in the presence of HPX, XO and SOD, (c) represents a result obtained by a reaction under an anaerobic condition in the presence of HPX, XO and SOD, and (d) represents a result obtained by a reaction with only H2O2. The test results shown in FIG. 1 will be described below in further detail.
More specifically, the enzyme reaction of the compound 1d (16 μM), xanthine oxidase (XO, 0.01 U/mL) and hypoxanthine (HPX, 40 μM) at 37° C. in a HEPES buffer solution (pH 7.4, 10 mM, 2.5 mL) was tracked at an excitation wavelength of 511 nm and an emission wavelength of 531 nm, then a fluorescent response caused by the formation of the compound 2d (above Scheme 4) was observed, and a progressive curve shown in FIG. 1(a) was obtained.
A specific description thereof will be provided below. NBT has a property of being reduced by superoxide O^2−•, and thus is used for a probe for spectrophotometric measurement and the like. However, NBT has a serious problem of being reduced not only by superoxide but also by reductase that exists in a biosystem.

[5] = Tracking fluorescence on reaction with H2O2 (FIG. 1d); type: biochemical; settings: H2O2 40 μM only
Source text: as §2

[6] = Quantitativity of fluorescence response in the HPX/XO system, 96-well microplate assay; type: biochemical
Description: According to a 96 wellmicroplate assay, sensitivity and quantitativity of the fluorescence response of the probe (the compound 1d) in the HPX/XO system were tested. Specifically, a DMSO solution of 1d (10 mM) was diluted by 400-fold with HEPES (pH 7.4, 10 mM) so as to prepare a probe solution, and this probe solution (150 μL) was mixed with a HEPES solution of HPX (10 μL) and a HEPES solution of XO (0.26 U/mL, 10 μL), and was allowed to stand still at 37° C. for 10 minutes, and thereafter, a fluorescence intensity was measured. […] A correlation coefficient of this linear calibration curve was 1.000, and an inclination thereof was 0.58 au/pmol.
More specifically, an assay condition was the same as that in the above-described measurement, except providing a DMSO solution of 1d with a concentration of 5 mM, preparing a probe solution by diluting this DMSO solution by 400-fold with HEPES (pH 7.4, 10 mM), and using 180 μL of the probe solution. Fluorescence intensity measurement was conducted by using an ETC-272 Peltier thermostatted single cell holder (trade name) manufactured by JASCO Corporation or a SpectraMax GeminiEM fluorescence plate reader (trade name) manufactured by Molecular Devices Corporation provided with a FP-750 spectrofluorometer (trade name) manufactured by JASCO Corporation. As a result, a detection limit value of the concentration of HPX was 1.0 pmol (RSD, n=8; 2.9%), and a favorable linear calibration curve with a correlation coefficient of 0.9993 and an inclination of 0.80 au/pmol was obtained, with the concentration of HPX ranging from the detection limit value to 2.0 nmol. The inclination of this linear calibration curve is different from that of the above-described measurement, because of using the arbitrary units for the fluorescence intensities and the different measurement apparatuses.

Voltammetry measurement = type: physicochemical; settings: CH3CN—H2O (3:1) containing Et4NClO4

O=C1OC2(c3ccccc31)c1cc(F)c(OS(=O)(=O)c3ccc([N+](=O)[O-])cc3[N+](=O)[O-])c(F)c1Oc1c2cc(F)c(OS(=O)(=O)c2ccc([N+](=O)[O-])cc2[N+](=O)[O-])c1F [Compound 1d]
fluorescent response, ascorbic acid [1]: 11
fluorescent response, propylamine [2]: 10
fluorescent response, diethylamine [3]: 11
fluorescent response, esterase (esterase): 15
fluorescence response with HPX and XO, FIG. 1(a) ([4]; 1d 16 μM, XO 0.01 U/mL, HPX 40 μM, 37° C., HEPES pH 7.4, ex 511 nm, em 531 nm): increase a fluorescence response significantly in a short period of time
production of 2d from 1d caused by XO reductant, FIG. 1(c) ([4]; HPX, XO and SOD under the anaerobic condition): proceeded at a very low speed
fluorescence response with HPX, XO and SOD, FIG. 1(b) ([4]; as FIG. 1(a) plus SOD 40 U/mL): inhibited significantly
increase of fluorescence intensity with H2O2, FIG. 1(d) [5]: small enough to be neglected
detection limit value of HPX ([6]; 10 mM DMSO solution diluted 400-fold, 150 μL probe solution, 37° C., 10 minutes): 5.0 pmol
inclination of linear calibration curve ([6]; 10 mM DMSO solution diluted 400-fold, 150 μL, HPX from detection limit to 10.0 nmol): 0.58 au/pmol
detection limit value of HPX ([6]; different apparatus, 5 mM DMSO solution diluted 400-fold, 180 μL probe solution): 1.0 pmol
inclination of linear calibration curve ([6]; different apparatus, 5 mM DMSO solution, 180 μL, HPX from detection limit to 2.0 nmol): 0.80 au/pmol
cathode response (Voltammetry measurement): about −0.5 V vs SCE
